Test: gradient 5% acetonitrile 3 min, to 50% in 2 min, to 85% in 15 min, held 3 min, 100 µL/min
Conditions: column: Zorbax Extend-C18 2.1 x 50 mm; eluents: water / acetonitrile, 0.1% formic acid
In short: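 Using water and acetonitrile that each contained 0.1% formic acid, mixtures of ~100 pure standards were separated at 100 μL/min on a Zorbax Extend-C18 column (2.1 × 50 mm, 1.8 μm). The HPLC fed a quadrupole time-of-flight mass spectrometer working in positive and negative ionization mode, with dead and dwell volumes of 40 μL and 900 μL. Data were acquired over 3 months. Retention time was read from computationally picked adduct peaks after manual inspection of each.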

| RP-LC retention time | SMILES |
| --- | --- |
| 750 s | O=C(c1ccc(OCC2CCCN(C(=O)C3CCCC3)C2)cc1)N1CCOCC1 (centres undefined) |
| 668 s | Cc1ccc(NC(=O)Cn2c(C)nc3cc4c(cc32)OCCO4)c(C)c1 |
| 902 s | CCOc1ccccc1NC(=O)N1CCC2(C1)C(=O)N(C)c1ccccc12 (centres undefined) |
| 735 s | CC(C)NC(=O)CN1C(=O)C2CCCCN2c2ccc(C(=O)N3CCCCC3)cc21 (centres undefined) |
| 652 s | COc1cccc(NC(=O)Cn2c(N3CCOCC3)nc(C)cc2=O)c1 |
| 644 s | CCc1noc([C@@H]2CC(F)(F)CN2C(=O)c2cn(C)cn2)n1 |
| 709 s | O=C(Cn1cccn1)N1CCCC(COCc2ccccc2)C1 (centres undefined) |
| 771 s | CCc1ccc(CNC(=O)C2(CC)CCCCC(=O)N2)cc1 (centres undefined) |
| 917 s | Cc1cc(-c2cc(S(=O)(=O)NC3CCCCCC3)c(C)s2)n[nH]1 |
| 940 s | CCCn1ccc2sc(C)c(C(=O)NCc3cc(F)ccc3F)c2c1=O |
| 660 s | NS(=O)(=O)c1ccc(CCNC(=O)C2CN(c3nc4c(F)cccc4s3)C2)cc1 |
| 779 s | CS(=O)(=O)N1CCC(C(=O)N2CCC(Oc3nc4ccc(F)cc4s3)CC2)CC1 |
| 631 s | CCN1C(=O)CN(C(=O)c2cccs2)CC12CCOCC2 |
| 590 s | CN(C)C[C@@H]1CN(c2ncccn2)C[C@H]1NS(=O)(=O)Cc1ccc(F)cc1 |
| 614 s | O=C(c1ccsc1)N1CCN(C(=O)c2cc(-c3ccccn3)n[nH]2)CC1 |
| 693 s | COc1ccc(OC)c(-c2nnc(SCC(=O)Nc3nccs3)o2)c1 |
| 898 s | CC1=C(c2ccc(C)cc2)S(=O)(=O)N=C1N1CCCN(C(=O)c2cccc(C)c2)CC1 |
| 831 s | CN(C)S(=O)(=O)c1ccc(-c2nnc(C(=O)NCc3ccccc3)o2)cc1 |
| 548 s | CSc1ccccc1CN1CCC(CNC(=O)c2ccco2)CC1 |
| 631 s | Brc1cncc(-c2nc(-c3ccc4c(c3)ncn4CCN3CCCC3)no2)c1 |
| 705 s | O=C(CSCc1ccccc1)Nc1ccc(CC(=O)NC2CC2)cc1 |
| 566 s | Cc1cnc(C2CN(C(=O)C3(C)CCCCC3)C2)n1Cc1ccncc1 |

| RP-LC retention time | SMILES |
| --- | --- |
| 867 s | O=C(CSc1nnc(-c2ccc(Cl)cc2)o1)Nc1nccs1 |
| 839 s | CCC(C)(C)C(=O)N1CCCC1Cc1noc(-c2cccnc2)n1 (centres undefined) |
| 614 s | CN(C)S(=O)(=O)c1ccc2c(c1)N(CC(=O)NCCCN1CCCC1)C(=O)C1CCCCN21 (centres undefined) |
| 1080 s | CC(C)CC(=O)N1CCN(c2nc3ccccc3n(CC(C)C)c2=O)CC1 |
| 654 s | COC(=O)c1c(C)[nH]c(C(=O)N2CCC(CC(=O)NCCc3c(C)noc3C)CC2)c1C |
| 797 s | COc1ccccc1-c1nc(-c2ccc3c(c2)ncn3CCN2CCCC2)no1 |
| 716 s | Cn1cc(CN2CCC(C(=O)NCc3ccc(F)cc3)CC2)c2cc(Cl)ccc21 |
| 626 s | CN(C)c1ccc(C(CNC(=O)c2ccc(Br)o2)N2CCOCC2)cc1 (centres undefined) |
| 550 s | COc1ccc(C2CN(S(=O)(=O)c3cccc(C#N)c3)CCN2C)cc1 (centres undefined) |
| 741 s | Cc1ccc(-c2nc3cccc(C)n3c2Nc2ccccc2)cc1 |
| 613 s | Cc1noc(C)c1CCC(=O)N1CCCn2ccnc2C1C1CCCC1 (centres undefined) |
| 1050 s | COC(=O)c1ccc2c(=O)n(-c3ccc(OC)cc3)c(N3CCSC3)nc2c1 |
| 921 s | Cc1nc(-c2ccc(N3CCN(C(=O)c4cccc(F)c4)CC3)nc2)sc1C |
| 813 s | Cc1ccc(C)c(Nc2c(-c3nc(C)no3)cnc3nc(C)ccc23)c1 |
| 684 s | Cc1ccc(-c2cc(C(=O)NCCCn3ccnc3)c3ccccc3n2)s1 |
| 830 s | CCOc1ccccc1NC(=O)C1CCN(S(C)(=O)=O)c2cc(C)ccc2O1 (centres undefined) |
| 769 s | Cc1cccc(N2CCN(C(=O)c3c(C)sc4ccn(C)c(=O)c34)CC2)c1 |
| 741 s | CCOC(=O)c1noc2nc(C)nc(NCC3CCN(CCc4ccc(F)cc4)CC3)c12 |
| 1090 s | COc1ccc(-n2ncc3c(=O)n(Cc4nc(-c5ccc(Cl)c(F)c5)no4)cnc32)cc1 |
| 1000 s | CCc1nn2c(CNS(=O)(=O)c3ccccc3Cl)c(-c3ccccc3)nc2s1 |
| 941 s | O=C(CCN1C(=O)c2ccccc2S1(=O)=O)Nc1nc(-c2ccccc2)cs1 |
| 743 s | Cc1nnc(N2CCCC(C(=O)NCCc3ccco3)C2)c2nn(-c3ccc(Cl)cc3)c(C)c12 (centres undefined) |

| RP-LC retention time | SMILES |
| --- | --- |
| 1100 s | CC(C)n1cc(S(=O)(=O)N2CCN(c3ccccc3F)CC2)c2cccnc21 |
| 1250 s | CCOc1nc2ccccc2nc1N1CCCC(C(=O)N2CCN(c3ccccc3OC)CC2)C1 (centres undefined) |
| 558 s | COCC(=O)Nc1ccc2nc(N3CCN(C4CCCCC4)CC3)cc(C(=O)O)c2c1 |
| 863 s | O=C(NCc1ccc2c(c1)OCO2)c1ccc(-c2cccs2)nc1 |
| 983 s | Cc1cc(C)cc(C(=O)N2CCCC(C(=O)Nc3c(C)cc(C)cc3C)C2)c1 (centres undefined) |
| 636 s | Cc1ccc2c(=O)cc(C(=O)NCC(c3ccccc3)N(C)C)oc2c1C (centres undefined) |
| 679 s | Cc1nc(C)c(C(=O)N2CCCn3cc(-c4ccccc4F)nc32)s1 |
| 575 s | Cn1nc2n(c1=O)CCN(C(=O)c1cc(C3CC3)[nH]n1)CC2 |
| 527 s | O=C(Cn1cnc2ccccc21)NCCOc1cccc2cccnc12 |
| 692 s | COc1nccnc1NC1CCN(C(=O)c2cccnc2)CC1 |
| 676 s | COc1ccc(N2CCN(C(=O)C3CCCN(c4nccc5sc(C)cc45)C3)CC2)cc1 (centres undefined) |
| 867 s | COc1ccc(C2CC(=O)N(c3ccc(C)c(F)c3)C(=O)C2)cc1OC |
| 1020 s | O=S(=O)(NC1CCCCC1)c1ccc(-c2nnc(C3CCCC3)o2)o1 |
| 706 s | Cc1ccc(CNC(=O)c2ccc(Cn3nc(N4CCN(c5ccccc5)CC4)ccc3=O)o2)o1 |
| 546 s | c1cc(CN2CCC(Oc3nccnc3N3CCOCC3)C2)ccn1 (centres undefined) |
| 582 s | O=C(C1CC(=O)N(c2n[nH]c3cccc(F)c23)C1)N1CCN(c2ccccn2)CC1 (centres undefined) |
| 718 s | C=CC(=O)Nc1cccc(Oc2nc(Nc3ccc(N4CCN(C)CC4)cc3OC)ncc2Cl)c1 |
| 566 s | CC(=O)c1cccc(NC(=O)N2CCN(c3nc4ccccc4n3C)CC2)c1 |
| 944 s | Cc1ccc(-c2ccnc(SCC(=O)NCc3ccccc3)n2)cc1C |
| 762 s | CC(C)n1c(=O)sc2cc(S(=O)(=O)N3CCC(C(=O)N4CCOCC4)CC3)ccc21 |
| 808 s | CC(C)C(=O)Nc1cn(-c2ccc(C(=O)Nc3ccc4c(c3)OCCO4)cc2)cn1 |
| 1120 s | CC(CNC(=O)c1cn(C)nc1S(=O)(=O)N1CCSCC1)c1ccccc1 (centres undefined) |

| RP-LC retention time | SMILES |
| --- | --- |
| 1120 s | CCc1ccc(NC(=O)C2(C)Oc3cccnc3N(C(C)C)C2=O)cc1 (centres undefined) |
| 646 s | O=C(CCC(=O)N1CC2CCCN2c2ccccc21)NCCN1CCCCCC1 (centres undefined) |
| 680 s | CCC(C)NC(=O)c1cc(C)nc2ccc(F)cc12 (centres undefined) |
| 763 s | Cc1ncoc1C(=O)N1CCC(c2noc(-c3ccccc3)n2)C1 (centres undefined) |
| 870 s | O=C(N[C@H]1C[C@@H]2C[C@H]1N(S(=O)(=O)c1cc(F)cc(F)c1)C2)c1ccccc1 |
| 821 s | COc1ccc(OC)c(NS(=O)(=O)c2cc3c(s2)CCN(C(=O)C2CC2)C3)c1 |
| 686 s | O=C(c1ccccn1)N1CCC(Oc2cc(N3CCCCC3)ncn2)C1 (centres undefined) |
| 588 s | O=c1oc2c(CN3CCCC3)c(O)ccc2c2c1CCC2 |
| 714 s | COc1ccc(-c2nc3cc(C)ccn3c2Nc2ccc3c(c2)OCCO3)cc1 |
| 851 s | CN(C(=O)C1CCCN(c2ncnc3c2nc2n3CCCCC2)C1)c1cccc(Cl)c1 (centres undefined) |
| 677 s | COc1cc2c(cc1OC)CC(=O)N(CCCN(C)C[C@H]1Cc3cc(OC)c(OC)cc31)CC2 |
| 681 s | COc1ccccc1CNC(=O)C1CCN(C(=O)c2nn(C)c3c2CN(C(=O)C(C)C)CC3)CC1 |
| 783 s | CCCn1c(C2CCN(S(=O)(=O)c3ccccc3)C2)nc2cccnc21 (centres undefined) |
| 736 s | CCOC(=O)N1CCN(S(=O)(=O)c2ccc(C(=O)Nc3cc(C)no3)cc2)CC1 |
| 625 s | COc1ccc(Cl)c2c(=O)c3c([nH]c12)CCN(CC(=O)NCc1ccccc1F)C3 |
| 667 s | CCOCCOC1CCN(C(=O)c2ccco2)CC1 |
| 855 s | Cc1ccc(CN2CC(=O)N(c3cccc(C)c3)[C@@H]3CS(=O)(=O)C[C@@H]32)cc1 |
| 715 s | O=C(NC1CCN(c2cc(-c3ccc(Cl)cc3)[nH]n2)C1)c1ccc2c(c1)OCO2 (centres undefined) |
| 634 s | Cc1nnc(NC(=O)CSc2nnc(NC(=O)Nc3cccs3)s2)s1 |
| 714 s | CCc1onc(C)c1C1CCCN1C(=O)c1ccc(OC)c(OC)c1 (centres undefined) |
| 714 s | CCC(C)NC(=O)Cn1cccc(-c2nc(-c3ccc(OC)c(OC)c3)no2)c1=O (centres undefined) |

| SMILES | RP-LC retention time |
| --- | --- |
| Cc1ccc(C(=O)Nc2nccnc2C(=O)N2CCC3(CC2)OCCO3)cc1 | 724 s |
| N#Cc1ccc(N2CCN(C(=O)COc3ccc4[nH]cc(CCN)c4c3)CC2)cc1 | 684 s |

— the METLIN SMRT retention time set (Domingo-Almenara et al. 2019)
